# Source: patent publication US20250230193A1, “CYCLIC COMPOUND HAVING SELECTIVE KRAS INHIBITORY EFFECT ON HRAS AND NRAS” (CHUGAI SEIYAKU KABUSHIKI KAISHA, priority 2022, published 2025)
# *1 amine or outer side, *2 acyl side, *3 side chain or, on linkers, in order; H or OH if unused. Where a SMILES comes first, the peptide text is derived from it. Bridges are numbered along the chain shown (N, C = ends). [ ]: non-standard residue; d: D form. The star is where a group is joined. hPhe(3-Cl-4-CF3) = N[C@@H](CCc1ccc(C(F)(F)F)c(Cl)c1)C(=O)O; NPrPhe(4-CF3) = CCCN[C@@H](Cc1ccc(C(F)(F)F)cc1)C(=O)O; X22 = CCCN([C@@H](COC1CCC1)C(=O)[*:2])[*:1]; NMeGly(cPent) = CN[C@H](C(=O)O)C1CCCC1; Hyp = O=C(O)[C@@H]1C[C@@H](O)CN1; NMeD = CN[C@@H](CC(=O)O)C(=O)O; NMeL = CN[C@@H](CC(C)C)C(=O)O; Morpholide = C1CN(*)CCO1; NMeA = CN[C@@H](C)C(=O)O; Aze = O=C(O)[C@@H]1CCN1; Ac4c = NC1(C(=O)O)CCC1; NEtG = CCNCC(=O)O; Sar = CNCC(=O)O
# Tests used:
# [1] = target: GDP-bound NRAS wild-type protein (Homo sapiens, UniProt P01111); test: Binding to NRAS by surface plasmon resonance (SPR), Single Cycle Kinetics
# Sequence of GDP-bound NRAS wild-type protein (P01111 whole entry): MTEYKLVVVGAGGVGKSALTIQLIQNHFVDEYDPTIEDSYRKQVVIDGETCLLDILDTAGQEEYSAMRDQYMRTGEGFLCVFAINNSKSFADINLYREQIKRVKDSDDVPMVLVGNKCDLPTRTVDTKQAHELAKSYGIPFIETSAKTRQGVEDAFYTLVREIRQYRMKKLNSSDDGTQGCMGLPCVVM
# [2] = target: GDP-bound HRAS wild-type protein (Homo sapiens, UniProt P01112); test: Binding to HRAS by surface plasmon resonance (SPR), Single Cycle Kinetics
# Sequence of GDP-bound HRAS wild-type protein (P01112 whole entry): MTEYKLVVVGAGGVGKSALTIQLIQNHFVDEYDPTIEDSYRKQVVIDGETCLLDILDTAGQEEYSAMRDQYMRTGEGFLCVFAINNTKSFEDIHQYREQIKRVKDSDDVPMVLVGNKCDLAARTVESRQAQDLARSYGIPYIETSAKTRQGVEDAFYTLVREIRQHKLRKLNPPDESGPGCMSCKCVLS
# [3] = SPR, GDP-bound wild-type proteins
structure (smiles),measurement,setting,value
CCCN1C(=O)CN(C)C(=O)CN(CC)C(=O)[C@H]([C@@H](C)CC)NC(=O)[C@H](CC(C)C)N(C)C(=O)C[C@@H](C(=O)N(C)C)N(C)C(=O)[C@H](C2CCCC2)N(C)C(=O)C2(CCC2)NC(=O)[C@@H]2C[C@@H](OCC)CN2C(=O)[C@H](CCc2ccc(C(F)(F)F)c(Cl)c2)NC(=O)CN(C)C(=O)[C@@H]1Cc1ccc(C(F)(F)F)cc1 [PP0428] ([NMeL]I[NEtG][Sar][NPrPhe(4-CF3)][Sar][hPhe(3-Cl-4-CF3)][Hyp](Et)[Ac4c][NMeGly(cPent)][NMeD]-NMe2; lactam N-11),NRAS/KRAS (ratio of KD value with respect to GDP-bound NRAS wild-type protein to KD value with respect to KRAS),[1]; SPR,B (a compound having 3 or more and less than 10 is denoted as B)
same,HRAS/KRAS (ratio of KD value with respect to GDP-bound HRAS wild-type protein to KD value with respect to KRAS),[2]; SPR,C (A compound having a KD ratio of 0.1 or more and less than 3 is denoted as C)
CCCN1C(=O)[C@@H]2CCN2C(=O)[C@H](C)N(C)C(=O)[C@H]([C@@H](C)CC)NC(=O)[C@H](CC(C)C)N(C)C(=O)C[C@@H](C(=O)N2CCOCC2)N(C)C(=O)[C@H](C2CCCC2)N(C)C(=O)C2(CCC2)NC(=O)[C@@H]2CCCN2C(=O)[C@H](CCc2ccc(C(F)(F)F)c(Cl)c2)NC(=O)CN(C)C(=O)[C@@H]1COC1CCC1 [PP1818] ([NMeL]I[NMeA][Aze][X22][Sar][hPhe(3-Cl-4-CF3)]P[Ac4c][NMeGly(cPent)][NMeD]-Morpholide; lactam N-11),NRAS/KRAS (ratio of KD value for NRAS to KD value for KRAS),"[1]; KD ratio, GDP-bound NRAS wild-type vs GDP-bound KRAS wild-type, SPR",C (A compound having a KD ratio of 0.1 or more and less than 3 is denoted as C)
same,HRAS/KRAS (ratio of KD value for HRAS to KD value for KRAS),"[2]; KD ratio, GDP-bound HRAS wild-type vs GDP-bound KRAS wild-type, SPR",B (a compound having 3 or more and less than 10 is denoted as B)
CCO[C@@H]1C[C@H]2C(=O)NC3(CC(C)(C)C3)C(=O)N(C)[C@@H](C3CCCC3)C(=O)N(C)[C@H](C(=O)N(C)CC)CC(=O)N(C)[C@@H](COC)C(=O)N[C@@H]([C@@H](C)CC)C(=O)N(C)CC(=O)N(C)[C@H]3C/C=C\CCN(C3=O)[C@@H](Cc3ccc(C(F)(F)F)cc3)C(=O)N(C)CC(=O)N[C@@H](CCc3ccc(Cl)c(Cl)c3)C(=O)N2C1 [PP2835],NRAS/KRAS (ratio of KD value with respect to GDP-bound NRAS wild-type protein to KD value with respect to KRAS),[1]; class symbols,A (a compound having 10 or more and less than 20 is denoted as A)
same,HRAS/KRAS (ratio of KD value with respect to GDP-bound HRAS wild-type protein to KD value with respect to KRAS),[2]; class symbols,A (a compound having 10 or more and less than 20 is denoted as A)
CCO[C@@H]1C[C@H]2C(=O)NC3(CCC3)C(=O)N(C)[C@@H](C3CCCC3)C(=O)N(C)[C@H](C(=O)N3CCOCC3)CC(=O)N(C)[C@@H](COC)C(=O)N[C@@H]([C@@H](C)CC)C(=O)N(C)CC(=O)N(C)[C@H]3CCCCCN(C3=O)[C@@H](Cc3ccc(C(F)(F)F)cc3)C(=O)N(C)CC(=O)N[C@@H](CCc3cc(F)c(C(F)(F)F)c(F)c3)C(=O)N2C1 [PP0689],NRAS/KRAS (ratio of KD value with respect to GDP-bound NRAS wild-type protein to KD value with respect to KRAS),[1]; SPR,B (a compound having 3 or more and less than 10 is denoted as B)
same,HRAS/KRAS (ratio of KD value with respect to GDP-bound HRAS wild-type protein to KD value with respect to KRAS),[2]; SPR,B (a compound having 3 or more and less than 10 is denoted as B)
CCO[C@@H]1C[C@H]2C(=O)NC3(CCC3)C(=O)N(C)[C@@H](C3CCCC3)C(=O)N(C)[C@H](C(=O)N(C)C)CC(=O)N(C)[C@@H](CC3CCCC3)C(=O)N[C@@H]([C@@H](C)CC)C(=O)N(C)CC(=O)N(C)[C@H]3CCCCCN(C3=O)[C@@H](Cc3ccc(C(F)(F)F)cc3)C(=O)N(C)CC(=O)N[C@@H](CCc3cc(F)c(C(F)(F)F)c(F)c3)C(=O)N2C1 [PP0670],NRAS/KRAS (ratio of KD value with respect to GDP-bound NRAS wild-type protein to KD value with respect to KRAS),[1]; SPR,B (a compound having 3 or more and less than 10 is denoted as B)
same,HRAS/KRAS (ratio of KD value with respect to GDP-bound HRAS wild-type protein to KD value with respect to KRAS),[2]; SPR,B (a compound having 3 or more and less than 10 is denoted as B)
CC[C@H](C)[C@@H]1NC(=O)[C@@H]2CCCCCc3ccc(cc3)C[C@@H](C(=O)N(C)CC(=O)N[C@@H](CCc3ccc(C(F)(F)F)c(OC)c3)C(=O)N3CC4(CC4)C[C@H]3C(=O)NC3(CC(C)(C)C3)C(=O)N(C)[C@@H](C3CCCC3)C(=O)N(C)[C@H](C(=O)N(C)C)CC(=O)N2C)N2CC/C=C\C[C@@H](C2=O)N(C)C(=O)CN(C)C1=O [PP3074],NRAS/KRAS (ratio of KD value with respect to GDP-bound NRAS wild-type protein to KD value with respect to KRAS),[1]; [3],A (a compound having 10 or more and less than 20 is denoted as A)
same,HRAS/KRAS (ratio of KD value with respect to GDP-bound HRAS wild-type protein to KD value with respect to KRAS),[2]; [3],A (a compound having 10 or more and less than 20 is denoted as A)
CCOC[C@H]1C(=O)N[C@@H]([C@@H](C)CC)C(=O)N(C2CC2)CC(=O)N(C)[C@H]2C/C=C\CCN(C2=O)[C@@H](CC2CCCCC2)C(=O)N(C)CC(=O)N[C@@H](CCc2ccc(C(F)(F)F)c(OC)c2)C(=O)N2C[C@H](OCC)C[C@H]2C(=O)N(C)C2(CCC2)C(=O)N(C)[C@@H](C2CCCC2)C(=O)N(C)[C@H](C(=O)N(C)C)CC(=O)N1C [PP2342],NRAS/KRAS (ratio of KD value with respect to NRAS to KD value with respect to KRAS),"[1]; SPR, GDP-bound NRAS wild-type vs GDP-bound KRAS wild-type",A (a compound having 10 or more and less than 20 is denoted as A)
same,HRAS/KRAS (ratio of KD value with respect to HRAS to KD value with respect to KRAS),"[2]; SPR, GDP-bound HRAS wild-type vs GDP-bound KRAS wild-type",A (a compound having 10 or more and less than 20 is denoted as A)
